Assay results published in patent publication US20110124606A1, “SENSE-IMPROVING AGENT” (SNOW BRAND MILK PRODUCTS CO., LTD., priority 2007, published 2011).

Assays:
PC-12 cells = experiment: Cell differentiation-promoting activity: PC-12 cells cultured in culture supernatant of treated 3T3 cells; format: cell-based; conditions: supernatant of 3T3 cells cultured two days with 200 μg/l
Protocol: 3T3 cells, which is fibroblast cell strain known to be present in skin, were cultured for two days under the condition that the milk-derived phospholipid-containing composition of Example 1 or 2 was added at a concentration of 200 μg/l (Example 1: Group A, Example 2: Group B). As a control, 3T3 cells were cultured for two days without adding the milk-derived phospholipid-containing composition obtained in Example 1 or 2 (Group C). PC-12 cells (nerve model cells) were cultured using the culture supernatant thereof, and morphological differentiation of the PC-12 cells was observed. […] It was confirmed that 95% or more of the cells were differentiated when using the culture supernatant of the group A or B. On the other hand, the PC-12 cells were not differentiated when using the culture supernatant of the group C. No differentiation was observed through an optical microscope even though the experiment was repeated several times. It was thus confirmed that the milk-derived phospholipid-containing compositions obtained in Examples 1 and 2 promote differentiation of the PC-12 cells which was nerve model cells.
3T3 cells, which is fibroblast cell strain known to be present in skin, were cultured for two days under the condition that the sphingomyelin obtained in Example 3 was added at a concentration of 200 μg/l (group A). […]

[1] = tested on: Healthy elderly persons who suffered deterioration in sensation in the hands; experiment: Pain sensation in palm and foot by Algesiometer, oral intake of sphingomyelin (Test Example 5); format: in vivo, human; conditions: for Hand Foot bottom sensation measurement (before intake): Average value / Hand sensation measurement (before intake): Average value / Hand Foot bottom sensation measurement (after intake for 12 weeks): Average value / Hand sensation measurement (after intake for 12 weeks): Average value: Normal 0 to Deterioration III 3 points; for Hand Foot bottom sensation measurement (before intake): Deterioration I / Hand Foot bottom sensation measurement (before intake): Deterioration II / Hand Foot bottom sensation measurement (before intake): Deterioration III / Hand Foot bottom sensation measurement (before intake): Normal / Hand sensation measurement (before intake): Deterioration I / Hand sensation measurement (before intake): Deterioration II / Hand sensation measurement (before intake): Deterioration III / Hand sensation measurement (before intake): Normal / Hand Foot bottom sensation measurement (after intake for 12 weeks): Deterioration I / Hand Foot bottom sensation measurement (after intake for 12 weeks): Deterioration II / Hand Foot bottom sensation measurement (after intake for 12 weeks): Deterioration III / Hand Foot bottom sensation measurement (after intake for 12 weeks): Normal / Hand sensation measurement (after intake for 12 weeks): Deterioration I / Hand sensation measurement (after intake for 12 weeks): Deterioration II / Hand sensation measurement (after intake for 12 weeks): Deterioration III / Hand sensation measurement (after intake for 12 weeks): Normal: subjects per criterion, 15 per group; for sensation in the palm and the bottom of the foot (in words): 12 weeks
Protocol: The pain sensation was evaluated using five pins that differ in thickness in combination with five fulcrum positions. The thinnest pin 1 was rolled along the medial side of the arm, and the subject was asked about the degree of normal pain sensation. The pin 1 was then rolled along the palm and the bottom of the foot while sequentially changing the holder fulcrum position to determine the fulcrum position at which the same pain sensation degree as the first pain sensation occurred. The Algesiometer is designed so that the pain sensations with same degree occur between when rolling the pin 1 (fulcrum: 50 g) along the medial side of the arm and when rolling the pin 2 (fulcrum: 50 g) along the palm. The pain sensation was evaluated as follows in accordance with the instruction manual. The pain sensation was evaluated by points, and the average points were calculated. Normal (0 points): The same pain sensation occurred when rolling the pin 2 (fulcrum: 50 g). Deterioration I (1 point): The same pain sensation occurred when rolling the pin 1 (fulcrum: 50 g). Deterioration II (2 points): The same pain sensation occurred when rolling the pin 1 (fulcrum: 60 g): Deterioration III (3 points): The same pain sensation occurred when rolling the pin 1 (fulcrum: 70 g): Healthy elderly persons (average age: 75±3) who suffered deterioration in sensation in the hands were divided into three groups (one group: 15 subjects). The subjects took the sphingomyelin obtained in Example 4 in an amount of 0 mg, 4 mg, or 8 mg for 12 weeks. The pain sensation in the palm and the arch of the foot was measured with 4 criteria (normal, deteriorations I, II, and III) before the intake and after the intake for 12 weeks with reference to the pain sensation in the medial side of the arm using a pain/touch-pressure sensation measuring device (“Algesiometer” manufactured by Intercross Ltd.) in accordance with the instruction manual. After the intake for 12 weeks, a questionnaire survey on improvement in sensation in the hands was carried out to each elderly person. The measurement method and the evaluation method are the same as those employed in Test Example 4.

[2] = tested on: Healthy elderly persons who suffered deterioration in sensation in the hands; experiment: Questionnaire survey on improvement in sensation, oral intake of sphingomyelin (Test Example 5); format: in vivo, human; conditions: subjects of 15
Protocol: Healthy elderly persons (average age: 75±3) who suffered deterioration in sensation in the hands were divided into three groups (one group: 15 subjects). The subjects took the sphingomyelin obtained in Example 4 in an amount of 0 mg, 4 mg, or 8 mg for 12 weeks. The pain sensation in the palm and the arch of the foot was measured with 4 criteria (normal, deteriorations I, II, and III) before the intake and after the intake for 12 weeks with reference to the pain sensation in the medial side of the arm using a pain/touch-pressure sensation measuring device (“Algesiometer” manufactured by Intercross Ltd.) in accordance with the instruction manual. After the intake for 12 weeks, a questionnaire survey on improvement in sensation in the hands was carried out to each elderly person. The measurement method and the evaluation method are the same as those employed in Test Example 4.

sphingomyelin [Example 3]
morphological differentiation of PC-12 cells (PC-12 cells): highly differentiated
differentiation rate of PC-12 cells (PC-12 cells; optical microscope): ≥ 94%

sphingomyelin [Example 4]
Hand Foot bottom sensation measurement (before intake): Average value ([1]; 4 mg group): 2.1 points
Hand sensation measurement (before intake): Average value ([1]; 4 mg group): 2.1 points
Hand Foot bottom sensation measurement (before intake): Deterioration I ([1]; 4 mg group): 3
Hand Foot bottom sensation measurement (before intake): Deterioration II ([1]; 4 mg group): 7
Hand Foot bottom sensation measurement (before intake): Deterioration III ([1]; 4 mg group): 5
Hand Foot bottom sensation measurement (before intake): Normal ([1]; 4 mg group): 0
Hand sensation measurement (before intake): Deterioration I ([1]; 4 mg group): 3
Hand sensation measurement (before intake): Deterioration II ([1]; 4 mg group): 7
Hand sensation measurement (before intake): Deterioration III ([1]; 4 mg group): 5
Hand sensation measurement (before intake): Normal ([1]; 4 mg group): 0
Hand Foot bottom sensation measurement (before intake): Average value ([1]; 8 mg group): 2.3 points
Hand sensation measurement (before intake): Average value ([1]; 8 mg group): 2.3 points
Hand Foot bottom sensation measurement (before intake): Deterioration I ([1]; 8 mg group): 2
Hand Foot bottom sensation measurement (before intake): Deterioration II ([1]; 8 mg group): 7
Hand Foot bottom sensation measurement (before intake): Deterioration III ([1]; 8 mg group): 6
Hand Foot bottom sensation measurement (before intake): Normal ([1]; 8 mg group): 0
Hand sensation measurement (before intake): Deterioration I ([1]; 8 mg group): 2
Hand sensation measurement (before intake): Deterioration II ([1]; 8 mg group): 6
Hand sensation measurement (before intake): Deterioration III ([1]; 8 mg group): 7
Hand sensation measurement (before intake): Normal ([1]; 8 mg group): 0
sensation in the palm and the bottom of the foot (in words) ([1]; intake 4 mg): tended to be improved
Hand Foot bottom sensation measurement (after intake for 12 weeks): Average value ([1]; intake 4 mg): 1.7 points
Hand sensation measurement (after intake for 12 weeks): Average value ([1]; intake 4 mg): 1.5 points
Hand Foot bottom sensation measurement (after intake for 12 weeks): Deterioration I ([1]; intake 4 mg): 5
Hand Foot bottom sensation measurement (after intake for 12 weeks): Deterioration II ([1]; intake 4 mg): 7
Hand Foot bottom sensation measurement (after intake for 12 weeks): Deterioration III ([1]; intake 4 mg): 2
Hand Foot bottom sensation measurement (after intake for 12 weeks): Normal ([1]; intake 4 mg): 1
Hand sensation measurement (after intake for 12 weeks): Deterioration I ([1]; intake 4 mg): 5
Hand sensation measurement (after intake for 12 weeks): Deterioration II ([1]; intake 4 mg): 6
Hand sensation measurement (after intake for 12 weeks): Deterioration III ([1]; intake 4 mg): 2
Hand sensation measurement (after intake for 12 weeks): Normal ([1]; intake 4 mg): 2
sensation in the palm and the bottom of the foot (in words) ([1]; intake 8 mg): significantly improved
Hand Foot bottom sensation measurement (after intake for 12 weeks): Average value ([1]; intake 8 mg): 1.6 points
Hand sensation measurement (after intake for 12 weeks): Average value ([1]; intake 8 mg): 1.3 points
Hand Foot bottom sensation measurement (after intake for 12 weeks): Deterioration I ([1]; intake 8 mg): 7
Hand Foot bottom sensation measurement (after intake for 12 weeks): Deterioration II ([1]; intake 8 mg): 4
Hand Foot bottom sensation measurement (after intake for 12 weeks): Deterioration III ([1]; intake 8 mg): 3
Hand Foot bottom sensation measurement (after intake for 12 weeks): Normal ([1]; intake 8 mg): 1
Hand sensation measurement (after intake for 12 weeks): Deterioration I ([1]; intake 8 mg): 7
Hand sensation measurement (after intake for 12 weeks): Deterioration II ([1]; intake 8 mg): 3
Hand sensation measurement (after intake for 12 weeks): Deterioration III ([1]; intake 8 mg): 2
Hand sensation measurement (after intake for 12 weeks): Normal ([1]; intake 8 mg): 3
Foot sensation: Improved ([2]; intake 4 mg for 12 weeks): 5
Foot sensation: Same ([2]; intake 4 mg for 12 weeks): 9
Foot sensation: Worsened ([2]; intake 4 mg for 12 weeks): 1
Hand sensation: Improved ([2]; intake 4 mg for 12 weeks): 6
Hand sensation: Same ([2]; intake 4 mg for 12 weeks): 7
Hand sensation: Worsened ([2]; intake 4 mg for 12 weeks): 2
Foot sensation: Improved ([2]; intake 8 mg for 12 weeks): 8
Foot sensation: Same ([2]; intake 8 mg for 12 weeks): 7
Foot sensation: Worsened ([2]; intake 8 mg for 12 weeks): 0
Hand sensation: Improved ([2]; intake 8 mg for 12 weeks): 10
Hand sensation: Same ([2]; intake 8 mg for 12 weeks): 4
Hand sensation: Worsened ([2]; intake 8 mg for 12 weeks): 1
